Measured values published in PubChem BioAssay (NCI).
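Five compound concentrations were applied to cells in 96-well plates for 48 hours; endpoints were derived by simple linear interpolation of the resulting dose-response curve. GI50 = concentration required for 50% inhibition of growth. TGI: total growth inhibition.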

Key:
Test in all cases: NCI tumour cell line growth inhibition, 48 h
BT-549 breast = test system: BT-549 breast
HCT-15 colon = test system: HCT-15 colon
HL-60(TB) leukemia = test system: HL-60(TB) leukemia
HOP-62 NSCLC = test system: HOP-62 NSCLC
M14 melanoma = test system: M14 melanoma
MCF7 breast = test system: MCF7 breast
MOLT-4 leukemia = test system: MOLT-4 leukemia
OVCAR-4 ovarian = test system: OVCAR-4 ovarian
RPMI-8226 leukemia = test system: RPMI-8226 leukemia
SF-295 CNS = test system: SF-295 CNS
SK-OV-3 ovarian = test system: SK-OV-3 ovarian
U251 CNS = test system: U251 CNS

C#CCOC(=O)[C@@H](C)c1ccc2cc(OC)ccc2c1 was tested, and the TGI (BT-549 breast) was > 100 µM, the TGI (HCT-15 colon) was > 100 µM and the TGI (HL-60(TB) leukemia) was 35.8 µM. The TGI (HOP-62 NSCLC) was > 100 µM, the TGI (M14 melanoma) was > 100 µM and the TGI (MCF7 breast) was > 100 µM. For the same compound, the TGI (MOLT-4 leukemia) was > 100 µM, the TGI (OVCAR-4 ovarian) was > 100 µM and the TGI (RPMI-8226 leukemia) was > 100 µM. The TGI (SF-295 CNS) was > 100 µM, the TGI (SK-OV-3 ovarian) was > 100 µM and the TGI (U251 CNS) was > 100 µM.
With C[C@]12CC/C(=N\O)C=C1CC[C@@H]1[C@@H]2CC[C@]2(C)C(=N/O)/C(=C/c3ccncc3)C[C@@H]12 the TGI (BT-549 breast) was > 100 µM, the TGI (HCT-15 colon) was > 100 µM and the TGI (HL-60(TB) leukemia) was 5.09 µM. For the same compound, the TGI (HOP-62 NSCLC) was > 100 µM, the TGI (M14 melanoma) was 34 µM and the TGI (MCF7 breast) was 67.9 µM. The TGI (MOLT-4 leukemia) was > 100 µM, the TGI (OVCAR-4 ovarian) was > 100 µM and the TGI (RPMI-8226 leukemia) was 42.7 µM. The TGI (SF-295 CNS) was > 100 µM, the TGI (SK-OV-3 ovarian) was > 100 µM and the TGI (U251 CNS) was > 100 µM.
Cc1nn(C(=O)c2ccncc2)c2c1C(c1ccc([N+](=O)[O-])cc1)SC(N)=N2 (centres undefined) was tested, and the TGI (BT-549 breast) was > 100 µM, the TGI (HCT-15 colon) was > 100 µM and the TGI (HL-60(TB) leukemia) was > 100 µM. The TGI (HOP-62 NSCLC) was > 100 µM, the TGI (M14 melanoma) was > 100 µM and the TGI (MCF7 breast) was > 100 µM. The TGI (MOLT-4 leukemia) was > 100 µM, the TGI (OVCAR-4 ovarian) was > 100 µM and the TGI (RPMI-8226 leukemia) was > 100 µM. The TGI (SF-295 CNS) was > 100 µM, the TGI (SK-OV-3 ovarian) was > 100 µM and the TGI (U251 CNS) was > 100 µM.
In the case of COc1ccc(C(=O)N(Cc2cccnc2)C(=S)N(Cc2cccnc2)C(=O)c2ccc(OC)cc2)cc1, the TGI (BT-549 breast) is reported as > 100 µM, the TGI (HCT-15 colon) is reported as > 100 µM and the TGI (HL-60(TB) leukemia) is reported as > 100 µM. For the same compound, the TGI (HOP-62 NSCLC) was > 100 µM, the TGI (M14 melanoma) was > 100 µM and the TGI (MCF7 breast) was > 100 µM. For the same compound, the TGI (MOLT-4 leukemia) was > 100 µM, the TGI (OVCAR-4 ovarian) was > 100 µM and the TGI (RPMI-8226 leukemia) was > 100 µM. For the same compound, the TGI (SF-295 CNS) was > 100 µM, the TGI (SK-OV-3 ovarian) was > 100 µM and the TGI (U251 CNS) was > 100 µM.
Work on COc1ccc2c(c1)c(=O)c1c(NCCCN(C)C)ccc3ncn2c31 yielded a TGI (BT-549 breast) of 32 µM, a TGI (HCT-15 colon) of 14.7 µM and a TGI (HL-60(TB) leukemia) of 25.1 µM. The TGI (HOP-62 NSCLC) was 15 µM, the TGI (M14 melanoma) was 12.9 µM and the TGI (MCF7 breast) was 8.4 µM. The TGI (MOLT-4 leukemia) was 13.9 µM, the TGI (OVCAR-4 ovarian) was 13 µM and the TGI (RPMI-8226 leukemia) was > 27.7 µM. The TGI (SF-295 CNS) was 15.2 µM, the TGI (SK-OV-3 ovarian) was 22.1 µM and the TGI (U251 CNS) was 5.93 µM.
CCNC1=C(NC(=O)CCl)C(=O)c2ccccc2C1=O was tested, and the TGI (BT-549 breast) was > 10 µM, the TGI (HCT-15 colon) was 33.6 µM and the TGI (HL-60(TB) leukemia) was 88.9 µM. For the same compound, the TGI (HOP-62 NSCLC) was 30.2 µM, the TGI (M14 melanoma) was 42.6 µM and the TGI (MCF7 breast) was 47.4 µM. For the same compound, the TGI (MOLT-4 leukemia) was 55.5 µM, the TGI (OVCAR-4 ovarian) was 30.7 µM and the TGI (RPMI-8226 leukemia) was > 100 µM. For the same compound, the TGI (SF-295 CNS) was 36.9 µM, the TGI (SK-OV-3 ovarian) was > 10 µM and the TGI (U251 CNS) was 35.9 µM.
O=C(Nc1nccs1)NS(=O)(=O)n1cnc2ccccc21 was tested, and the TGI (BT-549 breast) was > 100 µM, the TGI (HCT-15 colon) was > 100 µM and the TGI (HL-60(TB) leukemia) was > 100 µM. For the same compound, the TGI (HOP-62 NSCLC) was > 100 µM, the TGI (M14 melanoma) was > 100 µM and the TGI (MCF7 breast) was > 100 µM. The TGI (MOLT-4 leukemia) was > 100 µM, the TGI (OVCAR-4 ovarian) was > 100 µM and the TGI (RPMI-8226 leukemia) was > 100 µM. For the same compound, the TGI (SF-295 CNS) was > 100 µM, the TGI (SK-OV-3 ovarian) was > 100 µM and the TGI (U251 CNS) was > 100 µM.
For CN(/N=C/c1ccccc1C(=O)O)C1=NCCCCN1, the TGI (BT-549 breast) was > 100 µM, the TGI (HCT-15 colon) was > 100 µM and the TGI (HL-60(TB) leukemia) was > 100 µM. For the same compound, the TGI (HOP-62 NSCLC) was > 100 µM, the TGI (M14 melanoma) was > 100 µM and the TGI (MCF7 breast) was > 100 µM. For the same compound, the TGI (MOLT-4 leukemia) was > 100 µM, the TGI (OVCAR-4 ovarian) was > 100 µM and the TGI (RPMI-8226 leukemia) was > 100 µM. The TGI (SF-295 CNS) was > 100 µM, the TGI (SK-OV-3 ovarian) was > 100 µM and the TGI (U251 CNS) was > 100 µM.
Compound Fc1cc2nc3n(c2cc1F)C(c1c(Cl)cccc1Cl)SC3 (centres undefined) has a TGI (BT-549 breast) of 40.3 µM, a TGI (HCT-15 colon) of 36.7 µM and a TGI (HL-60(TB) leukemia) of 70.9 µM. The TGI (HOP-62 NSCLC) was 29.6 µM, the TGI (M14 melanoma) was 29 µM and the TGI (MCF7 breast) was 33.1 µM. The TGI (MOLT-4 leukemia) was > 100 µM, the TGI (OVCAR-4 ovarian) was 30.1 µM and the TGI (RPMI-8226 leukemia) was 36.5 µM. For the same compound, the TGI (SF-295 CNS) was 26.2 µM, the TGI (SK-OV-3 ovarian) was 30.6 µM and the TGI (U251 CNS) was 31.4 µM.
With CCSc1nc(C)nc2c1sc1nc3ccccc3n12 the TGI (BT-549 breast) was > 100 µM, the TGI (HCT-15 colon) was > 100 µM and the TGI (HL-60(TB) leukemia) was > 100 µM. The TGI (M14 melanoma) was > 100 µM, the TGI (MCF7 breast) was > 100 µM and the TGI (MOLT-4 leukemia) was > 100 µM. For the same compound, the TGI (OVCAR-4 ovarian) was > 100 µM, the TGI (RPMI-8226 leukemia) was > 100 µM and the TGI (SF-295 CNS) was > 100 µM. For the same compound, the TGI (SK-OV-3 ovarian) was > 100 µM and the TGI (U251 CNS) was > 100 µM.
COc1cc(C(=O)N(C(=S)OC23CC4CC(CC(C4)C2)C3)c2ccccc2)cc(OC)c1OC was tested, and the TGI (BT-549 breast) was > 100 µM, the TGI (HCT-15 colon) was > 100 µM and the TGI (HL-60(TB) leukemia) was 45.8 µM. For the same compound, the TGI (HOP-62 NSCLC) was > 100 µM, the TGI (M14 melanoma) was 39.7 µM and the TGI (MCF7 breast) was > 100 µM. The TGI (MOLT-4 leukemia) was 21.8 µM, the TGI (OVCAR-4 ovarian) was > 100 µM and the TGI (SF-295 CNS) was > 100 µM. For the same compound, the TGI (SK-OV-3 ovarian) was > 100 µM and the TGI (U251 CNS) was 53 µM.
O=C1CSC(c2cccc(Oc3ccccc3)c2)N1c1cccc(Cl)c1Cl (centres undefined) gave a TGI (BT-549 breast) of 50.4 µM, a TGI (HCT-15 colon) of 46.8 µM and a TGI (HL-60(TB) leukemia) of 70.2 µM. The TGI (HOP-62 NSCLC) was > 100 µM, the TGI (M14 melanoma) was > 100 µM and the TGI (MCF7 breast) was 32.8 µM. For the same compound, the TGI (MOLT-4 leukemia) was 55.7 µM, the TGI (OVCAR-4 ovarian) was > 100 µM and the TGI (SF-295 CNS) was > 100 µM. The TGI (SK-OV-3 ovarian) was > 100 µM and the TGI (U251 CNS) was 39.1 µM.
CCOC(=O)/C=C(/C(=O)OCC)n1ccc(=O)n(CC(=O)OCC)c1=O gave a TGI (BT-549 breast) of 4.61 µM, a TGI (HCT-15 colon) of 1.84 µM and a GI50 (HL-60(TB) leukemia) of 0.191 µM. For the same compound, the TGI (HL-60(TB) leukemia) was 0.483 µM, the TGI (HOP-62 NSCLC) was 34.7 µM and the TGI (M14 melanoma) was 2.73 µM. The TGI (MCF7 breast) was 1.84 µM, the GI50 (RPMI-8226 leukemia) was 1.77 µM and the TGI (RPMI-8226 leukemia) was 4.35 µM. It also gave a TGI (SF-295 CNS) of 28.1 µM, a TGI (SK-OV-3 ovarian) of 27.6 µM and a TGI (U251 CNS) of 8.03 µM.
With C=C(C1=CC(=O)C(C)(C)O1)[C@@H]1CC=C([C@@H]2CC[C@H]3[C@@]2(C)CC[C@H]2C(C)(C)C(=O)[C@H](OC(=O)CC(C)(O)CC(=O)O)C[C@]32C)[C@H](O)O1 (some centres undefined) the TGI (BT-549 breast) was 13.4 µM, the TGI (HCT-15 colon) was 24.9 µM and the TGI (HL-60(TB) leukemia) was 38.4 µM. For the same compound, the TGI (HOP-62 NSCLC) was 35 µM, the TGI (M14 melanoma) was 27 µM and the TGI (MCF7 breast) was 20.9 µM. The TGI (MOLT-4 leukemia) was 30.8 µM, the TGI (RPMI-8226 leukemia) was 5.24 µM and the TGI (SF-295 CNS) was > 75 µM. The TGI (SK-OV-3 ovarian) was 46.9 µM and the TGI (U251 CNS) was 25.2 µM.
